Read-outs that look alike come from different tables or passages of the source.

The values that follow come from publication PMC9792776 (Frontiers in Pharmacology, 2022).

The target in one data set is T1, OAT3 (Homo sapiens, UniProt Q8TCC7).
T1 sequence (Q8TCC7 1-542): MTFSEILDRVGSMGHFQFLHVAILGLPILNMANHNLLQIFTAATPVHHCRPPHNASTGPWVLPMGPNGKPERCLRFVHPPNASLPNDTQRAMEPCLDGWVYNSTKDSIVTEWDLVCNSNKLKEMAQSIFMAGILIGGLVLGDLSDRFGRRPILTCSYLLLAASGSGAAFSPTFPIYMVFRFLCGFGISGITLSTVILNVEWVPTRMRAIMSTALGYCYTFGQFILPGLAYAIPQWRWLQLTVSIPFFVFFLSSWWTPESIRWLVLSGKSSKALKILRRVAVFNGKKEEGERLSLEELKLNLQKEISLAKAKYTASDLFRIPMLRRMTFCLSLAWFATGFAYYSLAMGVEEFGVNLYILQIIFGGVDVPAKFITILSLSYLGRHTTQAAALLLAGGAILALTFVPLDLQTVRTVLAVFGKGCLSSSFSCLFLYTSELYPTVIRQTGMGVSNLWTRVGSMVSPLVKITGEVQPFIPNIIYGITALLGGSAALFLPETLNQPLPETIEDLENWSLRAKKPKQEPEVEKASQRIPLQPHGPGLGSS
The data set can be described thus: Transporter substrate/inhibitor assessment, OAT3. The data set is classed as in vitro ADME.

A further data set has as its system T315I-mutated CML. The following applies: 40 mg QOD, 28-day cycles over 24 months, ref Jiang et al., 2022, cited from earlier work.
A short description of data set [1]: Food effect clinical study in Chinese patients with CML (NCT03882281). The data set is classed as in vivo, human. The text has this: In the first study, on food effects, 12 Chinese patients with CML were randomly divided into two groups (A and B) and the experiments divided into two periods. […] After a seven- day washout period, subjects in both groups took the drug interchangeably in period 2 (NCT03882281).

In a further data set the target is T2, OCT2 (Homo sapiens, UniProt O15244).
T2 sequence (O15244 1-555): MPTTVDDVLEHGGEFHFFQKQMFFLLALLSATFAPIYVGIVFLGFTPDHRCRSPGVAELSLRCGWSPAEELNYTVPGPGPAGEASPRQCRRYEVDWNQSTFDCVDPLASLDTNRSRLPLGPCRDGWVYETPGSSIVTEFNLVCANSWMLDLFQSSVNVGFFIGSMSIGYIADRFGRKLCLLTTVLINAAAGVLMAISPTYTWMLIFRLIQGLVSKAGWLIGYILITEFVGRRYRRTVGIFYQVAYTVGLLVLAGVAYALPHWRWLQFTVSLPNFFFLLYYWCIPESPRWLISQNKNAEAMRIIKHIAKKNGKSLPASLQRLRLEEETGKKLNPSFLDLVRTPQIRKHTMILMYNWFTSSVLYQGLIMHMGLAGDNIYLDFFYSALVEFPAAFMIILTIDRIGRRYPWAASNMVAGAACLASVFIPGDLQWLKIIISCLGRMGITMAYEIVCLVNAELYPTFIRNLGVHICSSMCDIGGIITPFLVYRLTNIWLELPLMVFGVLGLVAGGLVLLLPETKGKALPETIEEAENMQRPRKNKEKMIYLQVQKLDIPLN
The data set can be described thus: Transporter substrate/inhibitor assessment, OCT2. The data set is classed as in vitro ADME.

A further data set addresses T3, OAT1 (Homo sapiens, UniProt Q4U2R8).
T3 sequence (Q4U2R8 1-563): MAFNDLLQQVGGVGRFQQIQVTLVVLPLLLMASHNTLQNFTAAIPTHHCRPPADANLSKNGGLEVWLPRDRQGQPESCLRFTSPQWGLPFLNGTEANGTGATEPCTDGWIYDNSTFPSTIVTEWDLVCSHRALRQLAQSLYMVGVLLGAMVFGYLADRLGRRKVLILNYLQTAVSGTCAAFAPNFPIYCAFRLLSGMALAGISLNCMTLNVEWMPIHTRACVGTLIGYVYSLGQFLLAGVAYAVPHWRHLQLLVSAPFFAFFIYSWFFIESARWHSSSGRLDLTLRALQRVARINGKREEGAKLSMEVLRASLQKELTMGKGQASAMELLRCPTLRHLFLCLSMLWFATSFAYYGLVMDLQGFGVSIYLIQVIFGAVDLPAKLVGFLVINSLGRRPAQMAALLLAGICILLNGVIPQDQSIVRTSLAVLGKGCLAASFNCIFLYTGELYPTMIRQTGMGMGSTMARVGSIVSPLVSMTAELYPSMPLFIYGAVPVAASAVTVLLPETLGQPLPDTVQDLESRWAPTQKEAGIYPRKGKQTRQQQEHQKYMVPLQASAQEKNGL
The experiment in a line: Transporter substrate/inhibitor assessment, OAT1. The data set is classed as in vitro ADME.

The next data set concerns the target P-gp (Homo sapiens, UniProt P08183). The data set can be described thus: P-gp substrate and in vivo inhibition assessment. An excerpt:
The effects of transporters expressed on the gut and liver have not been investigated.

For a further data set, the system named is CYP2C9. The data set can be described thus: in vitro. The following applies: human.
The target in a further data set is T4, OATP1B1 (Homo sapiens, UniProt Q9Y6L6).
T4 sequence (Q9Y6L6 1-691): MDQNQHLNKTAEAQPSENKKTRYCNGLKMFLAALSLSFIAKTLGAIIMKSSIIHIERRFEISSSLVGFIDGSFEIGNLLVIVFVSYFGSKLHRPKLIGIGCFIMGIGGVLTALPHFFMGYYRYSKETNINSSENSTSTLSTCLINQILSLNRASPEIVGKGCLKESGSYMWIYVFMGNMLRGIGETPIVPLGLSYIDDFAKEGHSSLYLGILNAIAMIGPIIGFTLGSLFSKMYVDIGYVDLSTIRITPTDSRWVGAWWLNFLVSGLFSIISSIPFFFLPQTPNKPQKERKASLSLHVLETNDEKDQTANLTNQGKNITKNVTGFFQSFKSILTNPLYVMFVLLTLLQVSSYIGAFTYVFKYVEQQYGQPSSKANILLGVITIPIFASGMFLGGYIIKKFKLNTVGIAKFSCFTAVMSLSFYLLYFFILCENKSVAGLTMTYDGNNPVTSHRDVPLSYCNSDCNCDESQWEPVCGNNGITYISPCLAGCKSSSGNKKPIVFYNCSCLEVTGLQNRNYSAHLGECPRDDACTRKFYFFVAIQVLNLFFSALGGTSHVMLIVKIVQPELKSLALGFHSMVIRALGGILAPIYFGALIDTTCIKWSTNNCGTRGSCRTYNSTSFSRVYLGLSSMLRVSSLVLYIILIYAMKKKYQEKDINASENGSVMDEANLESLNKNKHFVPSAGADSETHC
The data set can be described thus: Transporter substrate/inhibitor assessment, OATP1B1. The format is in vitro ADME.

The mark [2] stands for this setting: Chinese CML patients, fed, 30 mg SD.

P-gp, sequence (P08183 whole entry): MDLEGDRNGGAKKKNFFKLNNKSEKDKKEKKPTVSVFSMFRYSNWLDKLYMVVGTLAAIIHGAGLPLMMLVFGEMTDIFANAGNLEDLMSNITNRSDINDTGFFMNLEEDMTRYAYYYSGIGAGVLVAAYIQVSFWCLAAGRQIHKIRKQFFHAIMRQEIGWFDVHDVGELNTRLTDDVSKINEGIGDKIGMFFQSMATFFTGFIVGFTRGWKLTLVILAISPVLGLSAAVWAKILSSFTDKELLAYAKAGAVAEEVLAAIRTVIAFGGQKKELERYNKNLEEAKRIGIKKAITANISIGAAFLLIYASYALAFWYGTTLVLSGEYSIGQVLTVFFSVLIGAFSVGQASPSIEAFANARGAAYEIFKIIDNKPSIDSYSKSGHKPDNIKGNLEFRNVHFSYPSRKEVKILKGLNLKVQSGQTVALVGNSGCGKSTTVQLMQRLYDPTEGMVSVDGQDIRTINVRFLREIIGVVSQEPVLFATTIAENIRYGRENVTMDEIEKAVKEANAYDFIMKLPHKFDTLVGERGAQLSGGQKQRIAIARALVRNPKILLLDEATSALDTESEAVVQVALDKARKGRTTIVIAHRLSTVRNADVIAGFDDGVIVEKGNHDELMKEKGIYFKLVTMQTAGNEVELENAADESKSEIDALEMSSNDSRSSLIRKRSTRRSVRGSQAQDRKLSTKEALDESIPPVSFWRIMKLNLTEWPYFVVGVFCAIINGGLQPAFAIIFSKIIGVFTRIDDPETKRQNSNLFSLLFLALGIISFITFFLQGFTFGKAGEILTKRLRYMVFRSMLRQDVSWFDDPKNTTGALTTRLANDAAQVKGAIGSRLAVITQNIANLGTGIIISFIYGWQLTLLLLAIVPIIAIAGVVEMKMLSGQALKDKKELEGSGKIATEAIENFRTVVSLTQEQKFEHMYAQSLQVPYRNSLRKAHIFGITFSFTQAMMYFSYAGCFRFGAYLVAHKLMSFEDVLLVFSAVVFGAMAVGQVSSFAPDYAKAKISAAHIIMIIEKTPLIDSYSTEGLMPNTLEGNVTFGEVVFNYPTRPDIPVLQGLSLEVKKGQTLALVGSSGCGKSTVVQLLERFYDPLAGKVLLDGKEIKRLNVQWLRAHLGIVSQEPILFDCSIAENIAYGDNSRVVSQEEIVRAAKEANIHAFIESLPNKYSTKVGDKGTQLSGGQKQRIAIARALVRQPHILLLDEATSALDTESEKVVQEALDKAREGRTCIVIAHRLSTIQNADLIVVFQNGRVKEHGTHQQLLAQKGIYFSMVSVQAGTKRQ

Broadly, the EC50 is the concentration needed to bring the measured effect to its halfway point. High values mean a less potent agent, low ones a more potent agent. Take `Cc1ccc(C(=O)Nc2ccc(CN3CCN(C)CC3)c(C(F)(F)F)c2)cc1C#Cc1cnc2[nH]ncc2c1` [olverembatinib, Olverembatinib]: the “substrate or inhibitor of OAT3” value on OAT3 is listed as “neither a substrate nor inhibitor”. In addition, in the data set on T315I-mutated CML (CML-AP, n = 37 without MaHR at baseline), the “major hematologic response (MaHR), patients” value is on record as 78.4%. Besides, the “major cytogenetic response (MCyR), patients” value with T315I-mutated CML (CML-CP, n = 121 without MCyR at baseline) is 79.3%. In addition, the “AUC Obs.” value in data set [1] (Chinese CML patients, fasting, 30 mg SD) turned out to be 237 h?ng/mL; in data set [1] (setting [2]) it was 276 h?ng/mL. Further, in data set [1] (setting [2]), the “Tmax Obs. (median)” value was found to be 6.00 h. Further, the half-life in data set [1] (human, plasma, 30 mg, oral, patients with CML, data on file, read-out: mean apparent terminal elimination half-life (t1/2) (converted)) was 32.7 h. For the same compound, the Tmax in data set [1] (human, plasma, 30 mg, oral, patients with CML, data on file, read-out: median time to reach peak plasma concentration (Tmax)) is 6 h; in data set [1] (human, plasma, oral, Chinese CML patients, fasting, 30 mg SD, read-out: Tmax Obs. (median)), 6 h. The Cmax is 8.72 ng/mL in data set [1] (human, plasma, oral, 30 mg, Chinese CML patients, fasting, 30 mg SD) and 10.8 ng/mL in data set [1] (human, plasma, oral, 30 mg, Chinese CML patients, fed, 30 mg SD). The “substrate or inhibitor of OCT2” value on OCT2 is given as “neither a substrate nor inhibitor”. Moreover, the “substrate or inhibitor of OAT1” value at OAT1 is on record as “neither a substrate nor inhibitor”. Besides, the “in vivo inhibition on P-gp” value on P-gp is “no obvious in vivo inhibition”. At P-gp, the “substrate of P-gp” value is reported as “is a substrate”. For the same compound, the EC50 with CYP2C9 (EC50) came out at 584 nM; in the data set with CYP2C9 (IndC50 CYP2C9 (Mean EC50)), 454 nM. The “substrate or inhibitor of OATP1B1” value at OATP1B1 is “neither a substrate nor inhibitor”.
